Assays:
Test in all cases: two-electrode voltage clamp, Xenopus oocytes
OR1 = test system: T1, OR1; assay type: cell-based, Cimex lectularius; details: co-expressed with ORCO; pH 7.6 Ringer's solution; −80 mV; agonist current
T1 construct: full-length cDNA from adult antennae in pT7Ts; co-expressed with ORCO in Xenopus oocytes; OR numbering of the bed bug genome annotation (47 ORs), not the earlier group naming in which OR5 was called OR1; with Odorant receptor coreceptor

OR19 = test system: T2, OR19; assay type: cell-based, Cimex lectularius; details: co-expressed with ORCO; pH 7.6 Ringer's solution; −80 mV; agonist current
T2 construct: full-length cDNA from adult antennae in pT7Ts; co-expressed with ORCO in Xenopus oocytes; with Odorant receptor coreceptor

OR20 = test system: T3, OR20; assay type: cell-based, Cimex lectularius; details: co-expressed with ORCO; pH 7.6 Ringer's solution; −80 mV; agonist current
T3 construct: full-length cDNA from adult antennae in pT7Ts; co-expressed with ORCO in Xenopus oocytes; with Odorant receptor coreceptor

OR42 = test system: T4, OR42; assay type: cell-based, Cimex lectularius; details: co-expressed with ORCO; pH 7.6 Ringer's solution; −80 mV; agonist current
T4 construct: full-length cDNA from adult antennae in pT7Ts; co-expressed with ORCO in Xenopus oocytes; with Odorant receptor coreceptor

OR46 = test system: T5, OR46; assay type: cell-based, Cimex lectularius; details: co-expressed with ORCO; pH 7.6 Ringer's solution; −80 mV; agonist current
T5 construct: full-length cDNA from adult antennae in pT7Ts; co-expressed with ORCO in Xenopus oocytes; with Odorant receptor coreceptor

OR37 = biological target: T6, OR37 (Cimex lectularius, UniProt A0A8I6S1W4); assay type: cell-based; details: co-expressed with ORCO; pH 7.6 Ringer's solution; −80 mV; agonist current
T6 construct: gene 106669445; full-length cDNA from adult antennae in pT7Ts; co-expressed with ORCO in Xenopus oocytes; with Odorant receptor coreceptor
T6 sequence (A0A8I6S1W4 1-374): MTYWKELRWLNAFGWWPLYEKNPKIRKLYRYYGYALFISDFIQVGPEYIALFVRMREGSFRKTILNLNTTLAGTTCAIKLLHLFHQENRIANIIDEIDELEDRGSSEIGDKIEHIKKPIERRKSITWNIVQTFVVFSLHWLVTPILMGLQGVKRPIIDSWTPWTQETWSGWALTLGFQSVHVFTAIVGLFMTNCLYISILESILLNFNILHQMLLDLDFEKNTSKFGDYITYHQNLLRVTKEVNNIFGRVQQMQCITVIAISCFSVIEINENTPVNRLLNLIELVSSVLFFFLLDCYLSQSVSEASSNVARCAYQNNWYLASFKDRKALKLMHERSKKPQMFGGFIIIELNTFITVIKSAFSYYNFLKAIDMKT
T6 sequence (A0A0A0U7J0 1-451 partner): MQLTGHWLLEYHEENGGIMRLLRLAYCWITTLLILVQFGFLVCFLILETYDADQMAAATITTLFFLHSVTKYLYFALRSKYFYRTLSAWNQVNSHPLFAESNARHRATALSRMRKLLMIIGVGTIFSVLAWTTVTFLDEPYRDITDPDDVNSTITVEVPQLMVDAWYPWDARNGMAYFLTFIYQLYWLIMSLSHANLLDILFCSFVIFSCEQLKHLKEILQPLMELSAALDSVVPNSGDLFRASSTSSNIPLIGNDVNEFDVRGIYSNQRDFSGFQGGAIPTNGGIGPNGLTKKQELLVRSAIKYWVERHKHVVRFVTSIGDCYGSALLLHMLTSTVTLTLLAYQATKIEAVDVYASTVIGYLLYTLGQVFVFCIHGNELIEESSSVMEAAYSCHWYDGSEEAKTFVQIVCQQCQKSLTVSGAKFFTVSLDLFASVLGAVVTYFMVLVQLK

OR36 = test system: T7, OR36; assay type: cell-based, Cimex lectularius; details: co-expressed with ORCO, pH 7.6 Ringer's solution, −80 mV, agonist current
T7 construct: full-length cDNA from adult antennae in pT7Ts; co-expressed with ORCO in Xenopus oocytes; with Odorant receptor coreceptor

OR21 = test system: T8, OR21; assay type: cell-based, Cimex lectularius; details: co-expressed with ORCO; pH 7.6 Ringer's solution; −80 mV; agonist current
T8 construct: full-length cDNA from adult antennae in pT7Ts; co-expressed with ORCO in Xenopus oocytes; with Odorant receptor coreceptor

OR5 = test system: T9, OR5; assay type: cell-based, Cimex lectularius; details: co-expressed with ORCO; pH 7.6 Ringer's solution; −80 mV; agonist current
T9 construct: full-length cDNA from adult antennae in pT7Ts; co-expressed with ORCO in Xenopus oocytes; called OR1 in the group's previous work; with Odorant receptor coreceptor

OR15 = test system: T10, OR15; assay type: cell-based, Cimex lectularius; details: co-expressed with ORCO; pH 7.6 Ringer's solution; −80 mV; agonist current
T10 construct: full-length cDNA from adult antennae in pT7Ts; co-expressed with ORCO in Xenopus oocytes; with Odorant receptor coreceptor

OR12 = test system: T11, OR12; assay type: cell-based, Cimex lectularius; details: co-expressed with ORCO; pH 7.6 Ringer's solution; −80 mV; agonist current
T11 construct: full-length cDNA from adult antennae in pT7Ts; co-expressed with ORCO in Xenopus oocytes; with Odorant receptor coreceptor

OR47 = test system: T12, OR47; assay type: cell-based, Cimex lectularius; details: co-expressed with ORCO; pH 7.6 Ringer's solution; −80 mV; agonist current
T12 construct: full-length cDNA from adult antennae in pT7Ts; co-expressed with ORCO in Xenopus oocytes; with Odorant receptor coreceptor

**Q.** For CC12CCC(CC1=O)C2(C)C (centres unmarked) [camphor], which EC50 (OR1) is on record?
**A.** 1.94 × 10^−5 v/v dilution

**Q.** CCCC(C)=O [2-pentanone] was tested. Which EC50 (OR19) did it give?
**A.** 4.13 × 10^−6 v/v dilution

**Q.** For C=CC(O)CCCCC (centres unmarked) [1-octen-3-ol], which EC50 (OR20) is on record?
**A.** 6.95 × 10^−6 v/v dilution

**Q.** CC12CCC(CC1)C(C)(C)O2 [eucalyptol] was tested. Which EC50 (OR1) did it give?
**A.** 1.88 × 10^−5 v/v dilution

**Q.** How did the EC50 (OR42) turn out when CC1=CC[C@@H]2C[C@H]1C2(C)C [(+)-α-pinene] was run?
**A.** 1.32 × 10^−5 v/v dilution

**Q.** How did the EC50 (OR46) turn out when CC(C)[C@H]1CC[C@H](C)CC1=O [(+)-menthone] was run?
**A.** 3.46 × 10^−5 v/v dilution

**Q.** What about the EC50 (OR37) of the same compound?
**A.** 1.93 × 10^−7 v/v dilution

**Q.** What about the EC50 (OR36; b26 prints 9.67 × 10^−8 for the same pair) of the same compound?
**A.** 9.92 × 10^−8 v/v dilution

**Q.** CCCCCCCCCC=O [decanal] was tested. Which EC50 (OR21) did it give?
**A.** 4.27 × 10^−6 v/v dilution

**Q.** And the EC50 (OR5)?
**A.** 1.53 × 10^−6 v/v dilution

**Q.** For CCCCCCCCC(C)O (centres unmarked) [2-decanol], which EC50 (OR21) is on record?
**A.** 7.55 × 10^−6 v/v dilution

**Q.** How did the EC50 (OR36) turn out when CC(C)[C@@H]1CC[C@@H](C)CC1=O [(−)-menthone] was run?
**A.** 1.64 × 10^−7 v/v dilution

**Q.** Which EC50 (OR5) does the source give for CCCCCCCCC=O [nonanal] here?
**A.** 1.32 × 10^−7 v/v dilution

**Q.** For CC(C)=CCCC(C)=CC=O [citral], which EC50 (OR37) is on record?
**A.** 3.32 × 10^−8 v/v dilution

**Q.** For CC1=CC[C@@H]2[C@H](C1)C2(C)C [1s-(+)-3-carene], which EC50 (OR20) is on record?
**A.** 6.85 × 10^−6 v/v dilution

**Q.** C=C1CC/C=C(\C)CC[C@@H]2[C@@H]1CC2(C)C [β-caryophyllene] was tested. Which EC50 (OR15) did it give?
**A.** 6.46 × 10^−6 v/v dilution

**Q.** Which EC50 (OR19) does the source give for CCCCC(C)=O [2-hexanone] here?
**A.** 1.33 × 10^−6 v/v dilution

**Q.** With CCCCC/C=C/CO [trans-2-octen-1-ol] as the compound, how does the EC50 (OR12) read?
**A.** 1.03 × 10^−4 v/v dilution

**Q.** With O=c1ccc2ccccc2o1 [coumarin] as the compound, how does the EC50 (OR47) read?
**A.** 2 × 10^−5 v/v dilution

**Q.** And the EC50 (OR42)?
**A.** 1.45 × 10^−5 v/v dilution
